Laboratory results reported in patent US20230011398A1, “COMBINATION THERAPY APPROACH TO ELIMINATE HIV INFECTIONS” (priority 2019, published 2023).

What was measured:
[1] = system: CD4+ T cells with or without infection by HIV-1; assay: Western blot of caspases, Bcl-2 family and LC3 after IDB; assay type: cell-based, human
Method: Western blot. PBMC CD4^+ T cells with or without infection by HIV-1 cultured for 4 days with CCL19 as in FIG. 1a. The cells were then cultured in the absence or presence of 0.1 μM IDB for 24 h. The cells were lysed in lysis buffer containing 50 mM HEPES, pH 7.5, 150 mM NaCl, 1 mM EDTA, 1% Triton X-100, 1X protease inhibitor mixture (Roche Applied Science) and 10 μM Benzyloxycarbonyl-Val-Ala-Asp (OMe) fluoromethylketone (zVAD-FMK, ENZO Life Sciences). The cell lysates were determined by the Bradford assay (Bio-Rad). Samples were used for SDS-PAGE and Western blot analyses by probing with different antibodies: monoclonal antibodies to caspase-9 (1:1,000, M054-3, clone 5B4) and caspase-7 (1:1,000, M053-3, clone 4G2) from Medical & Biological Laboratories; polyclonal rabbit antibodies to Atg-7 (1:1,000, 2631S), cleaved caspase-9 (1:1,000, 52873s), caspase-3 (1:1,000, 9665s); cleaved caspase-3 (1:1,000, 9501s), caspase-6 (1:1,000, 9762s), Mc1-1 (1:1,000, 5453s), Bcl-2 (1:1,000, 4223s), Bcl-xL (1:1,000, 2762s), Bak (1:1,000, 12105s), Bax (1:1,000, 2772s), LC3 (1:1000, 4108s) from Cell Signaling Technology and monoclonal antibody to β-Actin (1:50,000, sc-47778, clone C4) from Santa Cruz Biotechnology. The blots were them incubated with HRP-conjugated goat anti-Mouse IgG1 (1:50,000, 1070-05, Southern Biotech) or HRP-conjugated goat anti-Rabbit IgG (1:50,000, ab6721, Abcam) and developed using SuperSignal West Dura Extended Duration Substrate (ThermoFisher).

[2] = system: HIV-1-infected cells and uninfected bystander T cells; assay: Mixed culture of HIV-1-infected and CellTrace Violet-labeled uninfected T cells; settings: alone or together, 0.2 μM BMS-626529 present, 48 h
Method: To determine the specificity in the killing of HIV-1 infected cells, uninfected CD4 cells were labeled with CellTrace Violet dye (ThermoFisher Scientific) and mixed with HIV-1-infected cells at the ratio of 1:1. The cells were resuspended in RIPMI complete medium containing 0.2 μM BMS-626529, with 0.1 μM IDB, 0.2 μM ABT-263 and 2 μM SAR405 as indicated for 48 h. The cells were incubated with 1 μM FITC-DEVD-FMK, followed by staining with APC-Annexin and analyses by flow cytometry.

[3] = system: PBMCs from HIV-1-infected patients; assay: In vitro treatment of PBMCs from HIV-1-infected patients, HIV-1 mRNA by RT-PCR; assay type: cell-based, human; settings: outpatients undergoing ART, no active virus production
Method: Quantification of HIV-1 mRNA and DNA. HIV-1 mRNA was measured by RT-PCR similar to the described protocols. LTR-GAG was amplified with forward primer (LTR-GAG-AF), 5′-[…]-3′ (SEQ. ID NO. 9) and reverse primer (LTR-GAG-AR), 5′-[…] […]-3′ (SEQ. ID NO. 10), and detected with the LTR-GAG probe, SHEX/[…]/ZEN /[…]/3IABkFQ (SEQ. ID NO. 11). HIV-1 pol-1 was amplified with POL-1 forward primer (POL-1-AF), 5′-[…]-3′ (SEQ. ID NO. 12) and reverse primer (POL-1-AR), 5′-[…]-3′ (SEQ. ID NO. 13), and detected with the pol-1 probe FAM/[…]/ZEN/[…]/3IABKFQ (SEQ. ID NO. 14) in iTaq Universal Probes Supermix (Bio-Rad). The reaction was carried out by iTaq Universal Probes Supermix (Bio-Rad) with a QuantStudio 5 Real-Time PCR System and analyzed with the QuantStudio Design and Analysis Software (Applied Biosystem). Cycle threshold (Ct) values were calibrated using standard curve generated with the standard samples with known amounts of viral copies.
Treatment of PBMCs from HIV-1-infected patients. PBMCs from HIV-1 patients were resuspended in RPMI complete medium containing and 0.3 ng/ml IL-2 and 50 ng/ml M-CSF and cultured with 0.2 μM BMS-626529, 0.2 μM raltegravir, 25 nM IDB, 20 nM ABT-263, 0.1 μM SAR405 and 0.25 μM JQ1 for 2 days as one cycle of treatments. The cells were then washed and cultures in the same medium for next cycle of culture. […]

[4] = HIV-1-infected T cells, IDB 24 h

## CC1=C[C@]23C(=O)[C@@H](C=C(COC(=O)c4ccccc4)[C@@H](O)[C@]2(O)[C@H]1OC(=O)c1ccccc1)[C@H]1[C@@H](C[C@H]3C)C1(C)C [IDB, ingenol 3,20-dibenzoate]
[1]; CD4+ T cells not infected with HIV-1, IDB 24 h
  expression of anti-apoptotic Bcl-xL and Mcl-1: increased the expression
[1]; [4]
  activation of caspase-9, caspase-3, caspase-6 and caspase-7: induced the activation
  expression of Bcl-xL and Mcl-1: induced the expression of Bcl-xL and Mcl-1
[1]; IDB 24 h
  expression of anti-apoptotic Bcl-2: did not change
[1]; T cell with or without HIV-1 infections, IDB 24 h
  expression of LC3: induced the expression of LC3
[1]; compared with uninfected controls, IDB 24 h
  increase in Bcl-xL expression in HIV-1-infected cells: greater than in uninfected controls
[2]
  killing of HIV-1-infected cells in mixed culture: killed HIV-1-infected cells
  killing of uninfected bystander cells in mixed culture: resistant
[3]
  HIV-1 detection in PBMCs after stimulation with IDB: could be detected
